Experimental data reported in PubChem BioAssay AID588468 (NMMLSC, 2011).
The source made the active and inactive calls.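 Rule for the calls: active = compounds whose thermal stabilization response of the kinase is above zero; inactive = the rest.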

Molecular target: Beta-adrenergic receptor kinase 1 (Homo sapiens) (UniProt P25098)
Test: direct GRK2 binders by thermal shift, late-stage follow-up, orthogonal assay for GRK2 aptamer-displacement inhibitor project, biophysical, Thermofluor, set 2 (AID 588468)
Conditions: purified GRK2 thermal shift, ANS fluorescence; at 200 µM; active compounds read high

Chain of Beta-adrenergic receptor kinase 1 (Homo sapiens) (P25098 whole entry, looked up): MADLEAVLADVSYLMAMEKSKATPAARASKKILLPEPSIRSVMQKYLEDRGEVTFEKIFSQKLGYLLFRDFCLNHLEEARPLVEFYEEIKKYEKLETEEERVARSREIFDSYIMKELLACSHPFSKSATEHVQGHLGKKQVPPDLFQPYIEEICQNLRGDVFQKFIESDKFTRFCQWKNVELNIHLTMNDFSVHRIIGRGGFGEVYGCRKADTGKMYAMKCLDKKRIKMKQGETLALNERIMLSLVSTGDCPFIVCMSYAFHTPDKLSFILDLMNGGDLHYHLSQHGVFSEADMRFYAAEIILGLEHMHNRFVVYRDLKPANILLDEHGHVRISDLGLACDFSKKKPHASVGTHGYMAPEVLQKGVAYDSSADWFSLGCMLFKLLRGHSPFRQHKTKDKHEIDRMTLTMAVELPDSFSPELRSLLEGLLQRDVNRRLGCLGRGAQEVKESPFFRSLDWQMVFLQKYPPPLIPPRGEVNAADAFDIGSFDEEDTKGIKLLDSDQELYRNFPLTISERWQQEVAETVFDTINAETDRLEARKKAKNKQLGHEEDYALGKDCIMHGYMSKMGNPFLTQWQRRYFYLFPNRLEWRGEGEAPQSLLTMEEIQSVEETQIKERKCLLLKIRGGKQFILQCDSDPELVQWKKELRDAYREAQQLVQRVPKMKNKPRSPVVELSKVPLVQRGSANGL

SMILES	thermal stabilization response
COc1ccc(Cl)cc1NC(=O)CCS(=O)(=O)c1ccc(Br)cc1	-601% (inactive)
O=C(O)Cc1ccc(-n2cccc2)cc1	-127% (inactive)
CCOc1ccc(NC(=O)CCS(=O)(=O)c2ccc(Br)cc2)cc1	-25.9% (inactive)
Cc1cccc(CCNC(=O)CCS(=O)(=O)c2ccc(Br)cc2)c1	44.5%
Cc1cc2ccccc2n1CCNC(=O)C(C)Oc1ccccc1 (stereo not drawn)	-116% (inactive)
Cc1ccc(CCNC(=O)CCS(=O)(=O)c2ccc(Br)cc2)cc1	1.04%
O=C(CCS(=O)(=O)c1ccc(Br)cc1)Nc1ccc(Br)cc1F	-34.7% (inactive)
CCOc1ccccc1NC(=O)CCS(=O)(=O)c1ccc(Br)cc1	-16.1% (inactive)
O=C(CCS(=O)(=O)c1ccc(Br)s1)Nc1ccccc1Br	-73.1% (inactive)
COc1ccc(CCNC(=O)CCS(=O)(=O)c2ccc(Br)cc2)cc1OC	-74.6% (inactive)
COc1ccc([N+](=O)[O-])cc1NC(=O)CCS(=O)(=O)c1ccc(Br)cc1	-85.1% (inactive)
COC(=O)c1ccccc1NC(=O)CCS(=O)(=O)c1ccc(Br)s1	-184% (inactive)
O=C(CCS(=O)(=O)c1ccc(Br)cc1)NCc1cccs1	-152% (inactive)
NS(=O)(=O)c1ccc(CCNC(=O)CCS(=O)(=O)c2ccc(Br)cc2)cc1	-107% (inactive)
COC(=O)c1ccc(NC(=O)CCS(=O)(=O)c2ccc(Br)cc2)cc1	-62.8% (inactive)

The next lines start with the values.

thermal stabilization response	SMILES
72%	CCN(CC)c1ccc(NC(=O)CCS(=O)(=O)c2ccc(Br)cc2)c(C)c1
-93.6% (inactive)	COc1ccc(NC(=O)CCS(=O)(=O)c2ccc(Br)s2)cc1
21.3%	C#CCSc1nc2sc3c(c2c(=O)n1C)CCC3
-41.4% (inactive)	CC(=O)N1CCN(Cc2nc3cc(Cl)ccc3c(=O)[nH]2)CC1
25.7%	O=C(CN1CCc2ccccc21)NC(=O)NCc1ccccc1
-20.4% (inactive)	CC(CS(=O)(=O)c1ccc2c(c1)NC(=O)CS2)C(=O)NCc1ccccc1Cl (stereo not drawn)
-62% (inactive)	O=C(CSc1nc2ccccc2c(=O)n1-c1ccccc1)NC(=O)CN1CCCC1=O
116%	Cc1ccccc1NC(=O)CCS(=O)(=O)c1ccc(Br)s1
